For data set [1], the system named is Mus musculus. The experiment in a line: Increase in plasma HDLC level in human ApoA1 transgenic mouse model at 3 mg/kg/day after 12 days by FPLC method. It counts as functional, organism-based.
Data set [2] is described as follows: Total clearance in rat. It counts as ADME, organism-based. The note with it: in vivo.
The subject of data set [3] is Mus musculus. The data set can be described thus: Antidiabetic activity in db/db mouse diabetic model assessed as reduction in post prandial blood glucose level at 3 mg/kg/day. The format is functional, organism-based.
For data set [4], the system named is Rattus norvegicus. The experiment in a line: Antidiabetic activity in Zucker fa/fa rat assessed as glucose infusion rate at 1 mg/kg/day after 7 days by hyperinsulinemic-euglycemic clamp study. It counts as functional, organism-based.
Data set [5] in a line: Half life in cynomolgus monkey. The format is ADME, organism-based, Macaca fascicularis. The note with it: in vivo.
Data set [6] in a line: Half life in rat. The format is ADME, organism-based. The conditions noted are these: in vivo.
Data set [7] is described as follows: Total clearance in cynomolgus monkey. It counts as ADME, organism-based, Macaca fascicularis. The note with it: in vivo.
Data set [8] has as its system Rattus norvegicus. The experiment in a line: Antidiabetic activity in Zucker fa/fa rat assessed as fasting plasma insulin level at 1 mg/kg/day. It counts as functional.
Data set [9] has as its system Mus musculus. The experiment in a line: Increase in plasma HDLC level in human ApoA1 transgenic mouse model at 0.3 mg/kg/day after 12 days by FPLC method. The format is functional, organism-based.
The nature of data set [10]: Bioavailability in cynomolgus monkey. It counts as ADME, organism-based, Macaca fascicularis. The conditions noted are these: in vivo.
In data set [11] the test system is Mus musculus. The experiment in a line: Antidiabetic activity in overnight fasted db/db mouse diabetic model assessed as reduction in blood glucose level at 0.3 mg/kg/day, po chronically for 12 days challenged with glucose 24 hrs post last dose by OGTT. It counts as functional, organism-based.
In data set [12] the test system is Rattus norvegicus. The data set can be described thus: Antidiabetic activity in Zucker fa/fa rat assessed as HOMA-insulin resistance index at 1 mg/kg/day. It counts as functional, organism-based.
The test system of data set [13] is Mus musculus. The data set can be described thus: Antidiabetic activity in db/db mouse diabetic model assessed as reduction in post prandial blood glucose level at 0.3 mg/kg/day. It counts as functional, organism-based.
Data set [14] in a line: Bioavailability in rat. The note with it: in vivo. It counts as ADME, organism-based.
Data set [15] deals with Mus musculus. The data set can be described thus: Antidiabetic activity in overnight fasted db/db mouse diabetic model assessed as reduction in blood glucose level at 3 mg/kg/day, po chronically for 12 days challenged with glucose 24 hrs post last dose by OGTT. The format is functional, organism-based.
Data set [16] concerns the target T1, Peroxisome proliferator-activated receptor alpha (Homo sapiens, UniProt Q07869).
T1 sequence (Q07869 whole entry): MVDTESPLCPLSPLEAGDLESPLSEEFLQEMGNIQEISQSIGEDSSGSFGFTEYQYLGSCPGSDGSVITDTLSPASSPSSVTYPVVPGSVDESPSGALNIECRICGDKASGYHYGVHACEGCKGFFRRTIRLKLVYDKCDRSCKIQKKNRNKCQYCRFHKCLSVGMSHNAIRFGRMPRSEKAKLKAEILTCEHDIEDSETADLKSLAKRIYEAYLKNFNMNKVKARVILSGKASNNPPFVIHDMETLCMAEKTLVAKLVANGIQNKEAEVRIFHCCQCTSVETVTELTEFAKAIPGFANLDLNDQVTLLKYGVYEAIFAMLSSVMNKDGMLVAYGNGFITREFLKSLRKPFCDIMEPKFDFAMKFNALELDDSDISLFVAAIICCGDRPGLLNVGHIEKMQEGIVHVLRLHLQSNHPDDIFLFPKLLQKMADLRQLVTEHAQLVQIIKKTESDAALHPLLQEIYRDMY
The experiment in a line: biochemical.

Data set [17] deals with T1, Peroxisome proliferator-activated receptor alpha.
In data set [18] the test system is Mus musculus. The experiment in a line: Increase in plasma HDLC level in human ApoA1 transgenic mouse model at 300 mg/kg/day after 12 days by FPLC method. The format is functional, organism-based.
For data set [19], the target named is T2, Peroxisome proliferator-activated receptor delta (Homo sapiens, UniProt Q03181).
T2 sequence (Q03181 whole entry): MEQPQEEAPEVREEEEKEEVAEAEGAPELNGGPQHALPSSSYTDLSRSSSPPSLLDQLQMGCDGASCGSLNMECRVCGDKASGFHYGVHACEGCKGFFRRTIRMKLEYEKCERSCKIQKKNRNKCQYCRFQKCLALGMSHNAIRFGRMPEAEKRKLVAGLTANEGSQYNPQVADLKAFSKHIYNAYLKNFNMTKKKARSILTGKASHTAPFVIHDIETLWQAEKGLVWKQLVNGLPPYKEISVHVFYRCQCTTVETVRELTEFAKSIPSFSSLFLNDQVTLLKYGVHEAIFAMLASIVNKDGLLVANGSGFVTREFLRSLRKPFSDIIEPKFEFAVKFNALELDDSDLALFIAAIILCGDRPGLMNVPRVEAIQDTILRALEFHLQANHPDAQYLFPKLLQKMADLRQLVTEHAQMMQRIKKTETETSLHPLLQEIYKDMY

The test system of data set [20] is Rattus norvegicus. The data set can be described thus: Antidiabetic activity in Zucker fa/fa rat assessed as glucose infusion rate at 10 mg/kg/day after 7 days by hyperinsulinemic-euglycemic clamp study. It counts as functional, organism-based.
Data set [21] relates to Rattus norvegicus. The data set can be described thus: Antidiabetic activity in Zucker fa/fa rat assessed as HOMA-insulin resistance index at 10 mg/kg/day. The format is functional, organism-based.
The test system of data set [22] is Mus musculus. The data set can be described thus: Increase in plasma HDLC level in human ApoA1 transgenic mouse model at 10 mg/kg/day after 12 days by FPLC method. It counts as functional, organism-based.
For data set [23], the system named is Rattus norvegicus. The experiment in a line: Antidiabetic activity in Zucker fa/fa rat assessed as fasting plasma insulin level at 10 mg/kg/day. The format is functional.
For data set [24], the system named is Rattus norvegicus. The data set can be described thus: Antidiabetic activity in Zucker fa/fa rat assessed as glucose infusion rate at 3 mg/kg/day after 7 days by hyperinsulinemic-euglycemic clamp study. The format is functional, organism-based.
The test system of data set [25] is Rattus norvegicus. The experiment in a line: Antidiabetic activity in Zucker fa/fa rat assessed as HOMA-insulin resistance index at 3 mg/kg/day. It counts as functional, organism-based.

pEC50, pIC50: −log10 of the molar value. The source made the active and inactive calls. The calls are words filed in the database; no cut-off is given here.

Here are results for 21 compounds from ChEMBL document CHEMBL1138459 (Bioorg Med Chem Lett, 2009).

In the case of `CO[C@@H](Cc1ccc(OCCc2nc(-c3ccccc3)oc2C)c2ccsc12)C(=O)O` [ALEGLITAZAR], the result in the data set with Mus musculus [1], with Mus musculus [3], with Rattus norvegicus [4], in the data set with Mus musculus [9], in the data set on Mus musculus [11] and in the data set on Rattus norvegicus [12] was Active. For the same compound, the outcome in the data set with Mus musculus [13] and in the data set with Mus musculus [15] was Active. The clearance in data set [2] is 6.2 mL/min/kg; in data set [7], 1.6 mL/min/kg. The half-life is 12.9 h in data set [5] and 4 h in [6]. Further, in the data set with Rattus norvegicus [8], the Activity was 773 ng/mL. The bioavailability in data set [10] was found to be 68%; in [14] it was 70%.

Consider `CCO[C@@H](Cc1ccc(OCCc2nc(-c3ccc(C(F)(F)F)cc3)oc2C)c2ccsc12)C(=O)O`, for which, in [16], the pIC50 is 7.20. The compound further gave a negative-log EC50 (pEC50) in [17] of 7.05.

On to `CCO[C@@H](Cc1ccc(OCCc2nc(-c3ccc(C(F)(F)F)cc3)oc2C)c2ccccc12)C(=O)O`, for which, in data set [16], the pIC50 was 6.04. In [17], this compound had a pEC50 of 7.96.

Compound `CO[C@@H](Cc1ccc(OCCc2nc(-c3ccc(C(F)(F)F)cc3)oc2C)c2ccsc12)C(=O)O` had a pIC50 in data set [16] of 7.28. Also, the pEC50 in data set [17] was 8.70.

With `CC(C)(Oc1ccc(C(=O)c2ccc(Cl)cc2)cc1)C(=O)O` [FENOFIBRIC ACID], in data set [16], the negative-log IC50 (pIC50) was 3.97. The result in the data set with Mus musculus [18] was Active. Besides, in data set [17], the pEC50 was 4.16.

As to `CCO[C@@H](Cc1ccc(OCCc2nc(-c3ccccc3)oc2C)c2ccccc12)C(=O)O`, the pIC50 in data set [16] is 6.70. For the same compound, the figures for the pEC50 in data set [19] and in data set [17] were 6.77 and 7.96, respectively.

Take `CCO[C@@H](Cc1ccc(OCCc2nc(-c3ccccc3)oc2C)c2sccc12)C(=O)O`: the pIC50 in data set [16] is 6.48. The compound also had a pEC50 in [17] of 7.24.

In data set [16], `CCCOC(Cc1ccc(OCCc2nc(-c3ccccc3)oc2C)c2ccccc12)C(=O)O` (racemic) gave a negative-log IC50 (pIC50) of 7.16. The negative-log EC50 (pEC50) in data set [17] was 7.06.

As to `CO[C@@H](Cc1ccc(OCCc2nc(-c3ccccc3)oc2C)c2sccc12)C(=O)O`, the pIC50 in data set [16] was 7.55. The pEC50 in data set [19] is 6.86; in [17], 6.80.

As for `CO[C@@H](Cc1ccc(OCCc2nc(-c3ccc(C(C)C)cc3)oc2C)c2ccsc12)C(=O)O`, the negative-log IC50 (pIC50) in data set [16] is 7.35. The compound further had a negative logarithm of the EC50 (pEC50) in data set [17] of 7.70.

Consider `Cc1oc(-c2ccc(-c3ccccc3)cc2)nc1CCOc1ccc(C[C@H](OCC(F)(F)F)C(=O)O)c2ccccc12`, for which the pIC50 in data set [16] was 6.37. The compound further gave a pEC50 in data set [17] of 6.01.

Take `CCCCCCOC(Cc1ccc(OCCc2nc(-c3ccccc3)oc2C)c2ccsc12)C(=O)O` (racemic): the pIC50 in data set [16] is 6.92. Moreover, in data set [17], the negative logarithm of the EC50 (pEC50) was 6.60.

In turn, `Cc1oc(-c2ccccc2)nc1CCOc1ccc(CC(OCC(C)C)C(=O)O)c2sccc12` (racemic) had a pIC50 in data set [16] of 6.62. Further, the pEC50 in data set [17] was 7.32.

The compound `CCO[C@@H](Cc1ccc(OCCc2nc(-c3ccc(-c4ccccc4)cc3)oc2C)c2ccsc12)C(=O)O` gave a pIC50 in data set [16] of 6.71. Moreover, the pEC50 in [17] was 6.78.

Take `Cc1oc(-c2ccc(C(C)C)cc2)nc1CCOc1ccc(C[C@H](OCC2CC2)C(=O)O)c2sccc12`: in data set [16], the pIC50 is 7.43. In [17], this compound had a pEC50 of 7.80.

Regarding `Cc1oc(-c2ccccc2)nc1CCOc1ccc(C[C@H](OCC(F)(F)F)C(=O)O)c2sccc12`, the pIC50 in [16] was 7.22. The compound also gave a pEC50 in data set [17] of 6.26.

Take `CC(=O)c1ccccc1N[C@@H](Cc1ccc(OCCc2nc(-c3ccccc3)oc2C)cc1)C(=O)O`: the pIC50 in [16] was 6.20. Also, the outcome in the data set on Rattus norvegicus [20] and in the data set with Rattus norvegicus [21] was Active. Also, the result in the data set on Mus musculus [22] was inactive. In addition, in the data set on Rattus norvegicus [23], the Activity came out at 776 ng/mL. The compound further had a negative-log EC50 (pEC50) in [17] of 6.55.

`CN(CCOc1ccc(CC2SC(=O)NC2=O)cc1)c1ccccn1` (stereo not given): the result with Mus musculus [3], with Rattus norvegicus [24], in the data set with Rattus norvegicus [25] and in the data set with Mus musculus [13] was Active.

The compound `COC(Cc1ccc(OCCc2nc(-c3ccccc3C)oc2C)c2ccccc12)C(=O)O` (racemic) had a pIC50 in data set [16] of 6.36. In [17], the negative-log EC50 (pEC50) is 6.91.

As to `COc1cc(OC)cc(-c2nc(CCOc3ccc(C[C@H](OC)C(=O)O)c4sccc34)c(C)o2)c1`, the pIC50 in data set [16] was 7.32. For the same compound, the pEC50 in data set [19] was 6.17; in [17], 7.21.

Take `Cc1oc(-c2ccccc2)nc1CCOc1ccc(C[C@H](OCC2CC2)C(=O)O)c2sccc12`: the negative-log IC50 (pIC50) in data set [16] is 7.68. The negative-log EC50 (pEC50) in [17] was 7.57.

Usually clearance stands for the volume of plasma or blood freed of the substance per unit of time. Usually half-life stands for the time in which the quantity being followed falls by half. One may read the bioavailability as dose-corrected exposure relative to a reference, in per cent. What is called pIC50 is −log10 of the IC50, conventionally taken in molar units. In general, pEC50 refers to −log10 of the EC50, conventionally taken in molar units.
